# Settings: not given
row,SMILES,solubility [mM]
1,CC(C)(C)NCC(O)c1ccc(O)c(CO)c1 (stereo not drawn),59.3
2,NC(=O)NC1NC(=O)NC1=O (stereo not drawn),33.3
3,O=C1OC(c2ccc(O)cc2)(c2ccc(O)cc2)c2ccccc21,1.26

# Same assay, conditions: 20 °C
row,SMILES,solubility [mM]
1,CC1(C)C(=O)N(Cl)C(=O)N1Cl,2.54
2,CC(C)Br,24.6
3,S=C=S,15.5
4,O=[N+]([O-])c1ccc(Cl)cc1,1.43
5,Nc1nc(N)nc(N)n1,25.6
6,CCCBr,19.9
7,BrCCCBr,8.42
8,CCOP(=S)(OCC)SCC(=O)NC(C)C,8.76
9,CNC(=O)Oc1cc(C(C)(C)C)cc(C(C)(C)C)c1,0.057
10,O=[N+]([O-])c1cccc(Cl)c1Cl,0.325
11,O=[N+]([O-])c1ccc(Cl)c(Cl)c1,0.63
12,Cc1cc(O)cc(C)c1Cl,1.6
13,O=[N+]([O-])c1cccc(Cl)c1,1.73
14,C#C,46.1
15,c1ccc(Nc2ccccc2)cc1,0.313
16,C#CC(C)OC(=O)Nc1cccc(Cl)c1 (stereo not drawn),2.41
17,CC(=O)OC(C)=O,1180
18,CCCCCCC(C)=O,7.02
19,CCOCCOC(C)=O,1870
20,CCCCC(C)=O,175
21,CCNc1nc(NC(C)(C)C)nc(SC)n1,0.104

# Same assay, conditions: 22 °C
row,SMILES,solubility [mM]
1,N[C@@H](Cc1ccccc1)C(=O)O (racemic),134
2,O=[N+]([O-])C(Br)(CO)CO,1250

# Same assay, conditions: 23 °C
row,SMILES,solubility [mM]
1,CC(Oc1cc(Cl)c(Cl)cc1Cl)C(=O)O (stereo not drawn),0.341

# Same assay, conditions: 24 °C
row,SMILES,solubility [mM]
1,CN1CCN(CCCN2c3ccccc3Sc3ccc(Cl)cc32)CC1,0.04
2,CCOP(=S)(OCC)Oc1nc(Cl)c(Cl)cc1Cl,0.00319
3,CC[C@H](C)[C@H](N)C(=O)O (racemic),262
4,Cc1ccc2cc3c(ccc4ccccc43)cc2c1,0.000153
5,COP(=S)(OC)SCC(=O)N(C)C=O,10.1

# Same assay, conditions: 25 °C
row,SMILES,solubility [mM]
1,CCCCCC(=O)O,88.7
2,CCCCCCCCC=O,0.675
3,O=C(O)c1ccccc1C(=O)O,42.1
4,C[C@]12CC[C@H]3[C@@H](CCC4=CC(=O)CC[C@@H]43)[C@@H]1CC[C@@H]2O,11.3
5,ClC1(Cl)C2(Cl)C3(Cl)C4(Cl)C(Cl)(Cl)C5(Cl)C3(Cl)C1(Cl)C5(Cl)C24Cl (stereo not drawn),0.000156
6,Clc1ccc(Cl)cc1,0.553
7,O=Cc1ccccc1,61.9
8,CCC(C)CC,0.208
9,CC(C)(C)C,0.46
10,N[C@@H](Cc1c[nH]c2ccccc12)C(=O)O,65.6
11,Cc1ccc(O)cc1,199
12,Cc1cccc(O)c1,210
13,CCCCCCCCCCCCCCCCO,9.69e-05
14,OC(O)C(Cl)(Cl)Cl,4790
15,CCNC(=O)CSP(=S)(OC)OC,34.9
16,C[C@]12CCC(=O)C=C1CC[C@@H]1[C@@H]2CC[C@@]2(C)[C@H]1CC[C@]2(C)O,0.112
17,CCOC(=O)c1ccc(O)cc1,4.91
18,Oc1ncnc2[nH]ncc12,4.18
19,CCCC(C)(COC(N)=O)COC(N)=O,21.5
20,O=C(O)c1cccc([N+](=O)[O-])c1,21.4
21,CCN(CC)c1c([N+](=O)[O-])cc(C(F)(F)F)c(N)c1[N+](=O)[O-],0.00341
22,CC[N+](=O)[O-],626

row,SMILES,solubility [mM]
1,Clc1ccc(C(c2ccc(Cl)cc2)C(Cl)(Cl)Cl)cc1,1.55e-05
2,O=C(Nc1cccc(Cl)c1)OCC#CCCl,0.0426
3,O=C(O)c1cccnc1C(=O)O,65.8
4,c1ccc(-c2ccccc2)cc1,0.045
5,Oc1cccc(O)c1O,4020
6,CC(C)C[C@H](N)C(=O)O,141
7,CC(C)OC(=O)Nc1ccccc1,0.999
8,CCNc1nc(NC(C)C)nc(SC)n1,0.919
9,CCC1(CCC(C)C)C(=O)NC(=O)NC1=O,2.67
10,Nc1ccc2ccccc2c1,1.32
11,CC12CCC(CC1=O)C2(C)C (stereo not drawn),2.63
12,CCCCC(=O)O,384
13,CCCCCCCO,14.4
14,COc1cc(Cl)c(OC)cc1Cl,0.0386
15,C1=CCCCC1,2.59
16,Cn1cnc2c1c(=O)[nH]c(=O)n2C,1.83
17,Nc1ccccc1,387
18,ClC(Cl)=C(c1ccc(Cl)cc1)c1ccc(Cl)cc1,0.000126
19,Cn1c(=O)c2[nH]cnc2n(C)c1=O,40.9
20,CCCCc1ccccc1,0.0879
21,O=Cc1ccco1,801

# Same assay, conditions: 30 °C
row,SMILES,solubility [mM]
1,CCOC(=O)c1ccc(N)cc1,7.93
2,Nc1ccc(C(=O)O)cc1,44.6
3,CCC1(c2ccccc2)CCC(=O)NC1=O (stereo not drawn),4.6

# Source: the OPERA property sets (Mansouri et al. 2018)
